Tests used:
tau aggregates (Tau-412) = molecular target: T1, tau aggregates (Tau-412) (Homo sapiens, UniProt P10636); test: In vitro binding assay with aggregated tau (fluorescence); conditions: for Kd: aggregated tau 10 μg/sample, 1 h at RT, triplicate; for Selectivity Tau: Aβ1-40: ratio of Kd Aβ1-40 to Kd tau
T1 construct: purchased Stratech
Protocol: Tau protein (Tau-412 with 2 nucleotide-binding motifs and 4 repeat binding regions, 42.9 kDa, 1 mg/ml, Stratech) was incubated in the presence of heparin (0.1 mg/ml) for 72 h at 37° C. with continuous shaking to generate tau aggregates.
(§1) The two test compounds 18 (see Example 6) and 20 (see Example 5), were dissolved and serially diluted in DMSO. Samples with aggregated tau and Aβ1-40 (10 μg/sample) were incubated with a serial dilution of each test compound (concentration range 1 nM-100 μM) in 96-well plates for 1 h at RT. Following incubation, samples were transferred to spin column plates (Thermo Fisher) and then centrifugated for 2 min at 1,500×g to remove free compound from the samples. Finally, the samples were transferred to black 96-well plates, and the fluorescence intensity measured at […] using a Tecan plate reader. All experiments were performed in triplicate. Kd values for each compound was calculated by fitting the data to a non-linear binding curve using Prism (GraphPad).

Aβ1-40 aggregates = molecular target: T2, Aβ1-40 aggregates (Homo sapiens, UniProt P05067); test: In vitro binding assay with aggregated Aβ1-40 (fluorescence); conditions: aggregated Aβ1-40 10 μg/sample, 1 h at RT, triplicate
T2 construct: Aβ1-40 protein (4.3 kDa, 1 mg/ml, Invitrogen); purchased Invitrogen
Protocol: as §1, with “Aβ1-40 protein (4.3 kDa, 1 mg/ml, Invitrogen) was incubated at room temperature (RT) for 72 h with continuous shaking to generate Aβ1-40 aggregates. The two” for “The two”

insoluble tau aggregates = conditions: J Med Chem, 2009, 52, 3539; cited from earlier work

T1 sequence (P10636 1-412 isoform P10636-7): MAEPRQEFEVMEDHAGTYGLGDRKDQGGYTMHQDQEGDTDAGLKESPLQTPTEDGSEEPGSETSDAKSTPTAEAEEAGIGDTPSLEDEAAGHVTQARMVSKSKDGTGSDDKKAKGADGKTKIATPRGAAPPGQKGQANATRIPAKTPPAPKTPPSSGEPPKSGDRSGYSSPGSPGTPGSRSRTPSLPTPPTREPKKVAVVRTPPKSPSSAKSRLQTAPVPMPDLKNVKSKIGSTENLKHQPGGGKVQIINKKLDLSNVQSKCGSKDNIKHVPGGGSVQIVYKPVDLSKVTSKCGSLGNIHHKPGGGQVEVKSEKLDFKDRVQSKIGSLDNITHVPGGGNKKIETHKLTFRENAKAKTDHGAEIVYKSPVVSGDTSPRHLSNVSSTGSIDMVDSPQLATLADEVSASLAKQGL
T2 sequence (P05067 672-711 limits assumed): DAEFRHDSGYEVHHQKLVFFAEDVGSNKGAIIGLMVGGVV

| Selectivity for aggregated tau compared to Aβ1-40 aggregates (in words) (tau aggregates (Tau-412)) | Kd (tau aggregates (Tau-412)) | Selectivity Tau: Aβ1-40 (tau aggregates (Tau-412)) | Kd (Aβ1-40 aggregates) | Compound | Tau aggregation inhibition (in words) (insoluble tau aggregates) |
| --- | --- | --- | --- | --- | --- |
| highly selective | 0.00088 ± 0.0009 µM | 33,863 | 29.8 ± 21.3 µM | COc1ccc2c(c1)N(CCF)/C(=C/C(C)=C/c1sc3ccc(OC)cc3[n+]1CCF)S2 [Compound 18, 3-(2-Fluoroethyl)-2-((1E,3Z)-3-(3-(2-fluoroethyl)-5-methoxybenzo[d]thiazol-2(3H)-ylidene)-2-methylprop-1-en-1-yl)-5-methoxybenzo[d]thiazol-3-ium] |  |
| highly selective | 0.00075 ± 0.00059 µM | 20,800 | 15.6 ± 8.1 µM | COc1ccc2c(c1)N(CCO)/C(=C/C(C)=C/c1sc3ccc(OC)cc3[n+]1CCF)S2 [Compound 20, 3-(2-Fluoroethyl)-2-((1E,3Z)-3-(3-(2-hydroxyethyl)-5-methoxybenzo[d]thiazol-2(3H)-ylidene)-2-methylprop-1-en-1-yl)-5-methoxybenzo[d]thiazol-3-ium] |  |
|  |  |  |  | CCC(/C=C1\Sc2ccc(OC)cc2N1CCO)=C\c1sc2ccc(OC)cc2[n+]1CCO [Compound N744] | potent tau aggregation inhibitors |
